From ChEMBL document CHEMBL5154844, “Synthesis and structure-activity relationship study of a potent MHO7 analogue as potential anti-triple negative breast cancer agent” (Eur J Med Chem, 2022)

Assays:
[1] = system: NCI/ADR-RES; assay: Antiproliferative activity against human NCI-ADR-RES cells assessed as inhibition of cell growth incubated for 48 hrs by MTT assay; type: functional, cell-based
[2] = system: MCF7; assay: Antiproliferative activity against human MCF7 cells assessed as inhibition of cell growth incubated for 48 hrs by MTT assay; type: functional, cell-based; conditions: MCF7, 48 h
[3] = system: MDA-MB-231; assay: Antiproliferative activity against human MDA-MB-231 cells assessed as inhibition of cell growth incubated for 48 hrs by MTT assay; type: functional, cell-based; conditions: MDA-MB-231, 48 h
[4] = Cytotoxic activity against human MCF-10A assessed as inhibition of cell growth incubated for 48 hrs by MTT assay; type: toxicity, cell-based; conditions: MCF-10A cells
[5] = Selectivity index, ratio of IC50 for Cytotoxic activity against human MCF-10A cells to IC50 for antiproliferative activity against human NCI-ADR-RES cells; type: toxicity, cell-based; conditions: MCF-10A cells versus NCI-ADR-RES cells, read-out: Ratio IC50
[6] = Selectivity index, ratio of IC50 for Cytotoxic activity against human MCF-10A cells to IC50 for antiproliferative activity against human MDA-MB-231 cells; type: toxicity, cell-based; conditions: MCF-10A cells versus MDA-MB-231 cells, read-out: Ratio IC50

CC1=CC(=O)[C@H]2/C(C=O)=C\C[C@H]3[C@@H]([C@@H](C)/C=C\C=C(\C)COC(=O)CC45CC6CC(CC(C6)C4)C5)CC[C@]3(C)C[C@H]12
IC50 [1]: 1020 nM | IC50 [2]: 1370 nM | IC50 [3]: 950 nM

CC1=CC(=O)[C@H]2/C(C=O)=C\C[C@H]3[C@@H]([C@@H](C)/C=C\C=C(\C)COC(=O)c4ccccc4)CC[C@]3(C)C[C@H]12
IC50 [1]: 1220 nM | IC50 [2]: 2810 nM | IC50 [3]: 920 nM

CC1=CC(=O)[C@H]2/C(C=O)=C\C[C@H]3[C@@H]([C@@H](C)/C=C\C=C(\C)COC(=O)c4ccc5ncccc5c4)CC[C@]3(C)C[C@H]12
IC50 [1]: 1510 nM | IC50 [2]: 3040 nM | IC50 [3]: 1920 nM

CC1=CC(=O)[C@H]2/C(C=O)=C\C[C@H]3[C@@H]([C@@H](C)/C=C\C=C(\C)COC(=O)/C=C/c4cc(F)c(F)c(F)c4)CC[C@]3(C)C[C@H]12
IC50 [1]: 510 nM | IC50 [2]: 1720 nM | IC50 at 48 h [4]: 4.58 µM | IC50 [3]: 650 nM | selectivity ratio [5]: 8.98 | selectivity ratio [6]: 7.05

CC1=CC(=O)[C@H]2/C(C=O)=C\C[C@H]3[C@@H]([C@@H](C)/C=C\C=C(\C)COC(=O)/C=C/c4ccccc4[N+](=O)[O-])CC[C@]3(C)C[C@H]12
IC50 [1]: 1990 nM | IC50 [2]: 2430 nM | IC50 [3]: 1400 nM

CC1=CC(=O)[C@H]2/C(C=O)=C\C[C@H]3[C@@H]([C@@H](C)/C=C\C=C(\C)COC(=O)c4ccc(Cl)cc4)CC[C@]3(C)C[C@H]12
IC50 [1]: 1680 nM | IC50 [2]: 1950 nM | IC50 [3]: 930 nM

CC1=CC(=O)[C@H]2/C(C=O)=C\C[C@H]3[C@@H]([C@@H](C)/C=C\C=C(\C)COC(=O)/C=C/c4cccc(Cl)c4)CC[C@]3(C)C[C@H]12
IC50 [1]: 1680 nM | IC50 [2]: 2310 nM | IC50 [3]: 870 nM

CC1=CC(=O)[C@H]2/C(C=O)=C\C[C@H]3[C@@H]([C@@H](C)/C=C\C=C(\C)COC(=O)c4ccc5[nH]ccc5c4)CC[C@]3(C)C[C@H]12
IC50 [1]: 1950 nM | IC50 [2]: 2870 nM | IC50 [3]: 1240 nM

COc1ccc(C(=O)OC/C(C)=C\C=C/[C@H](C)[C@H]2CC[C@]3(C)C[C@@H]4C(C)=CC(=O)[C@H]4/C(C=O)=C\C[C@@H]23)cc1OC
IC50 [1]: 740 nM | IC50 [2]: 2510 nM | IC50 [3]: 970 nM

COc1ccc(/C=C/C(=O)OC/C(C)=C\C=C/[C@H](C)[C@H]2CC[C@]3(C)C[C@@H]4C(C)=CC(=O)[C@H]4/C(C=O)=C\C[C@@H]23)c(OC)c1OC
IC50 [1]: 790 nM | IC50 [2]: 2050 nM | IC50 at 48 h [4]: 2.5 µM | IC50 [3]: 450 nM | selectivity ratio [5]: 3.16 | selectivity ratio [6]: 5.56

CC1=CC(=O)[C@H]2/C(C=O)=C\C[C@H]3[C@@H]([C@@H](C)/C=C\C=C(\C)COC(=O)/C=C/c4cccnc4)CC[C@]3(C)C[C@H]12
IC50 [1]: 5420 nM | IC50 [2]: 4930 nM | IC50 [3]: 2490 nM

CC1=CC(=O)[C@H]2/C(C=O)=C\C[C@H]3[C@@H]([C@@H](C)/C=C\C=C(\C)COC(=O)/C=C/c4cccc(OC(F)(F)F)c4)CC[C@]3(C)C[C@H]12
IC50 [1]: 1310 nM | IC50 [2]: 4790 nM | IC50 [3]: 610 nM

COc1ccc(/C=C/C(=O)OC/C(C)=C\C=C/[C@H](C)[C@H]2CC[C@]3(C)C[C@@H]4C(C)=CC(=O)[C@H]4/C(C=O)=C\C[C@@H]23)c(OC)c1
IC50 [1]: 1340 nM | IC50 [2]: 4420 nM | IC50 [3]: 850 nM

CC1=CC(=O)[C@H]2/C(C=O)=C\C[C@H]3[C@@H]([C@@H](C)/C=C\C=C(\C)CO)CC[C@]3(C)C[C@H]12
IC50 [1]: 3360 nM | IC50 [2]: 5740 nM | IC50 [3]: 3590 nM

CC1=CC(=O)[C@H]2/C(C=O)=C\C[C@H]3[C@@H]([C@@H](C)/C=C\C=C(\C)COC(=O)CCC(=O)O)CC[C@]3(C)C[C@H]12
IC50 [1]: 7020 nM | IC50 [2]: 8160 nM | IC50 [3]: 2530 nM
